# According to paper PMC5218480 (PLoS ONE, 2017):
# Test system: MV-4-11 cells
# Test: Gene expression microarray analysis (Affymetrix PrimeView) and GSEA
# Format: cell-based, human
# Design: RFU PODN (11730768_x_at) / Fold change /veh PODN (11730768_x_at) / RFU LINC00158 (11744669_a_at) / Fold change /veh LINC00158 (11744669_a_at) / RFU DUSP10 (11751237_a_at) / Fold change /veh DUSP10 (11751237_a_at) / RFU ID3 (11757404_x_at) / Fold change /veh ID3 (11757404_x_at) / RFU PLEKHG5 (11737974_s_at) / Fold change /veh PLEKHG5 (11737974_s_at) / RFU LRRC4B (11730491_at) / Fold change /veh LRRC4B (11730491_at) / RFU GIMAP4 (11747438_a_at) / Fold change /veh GIMAP4 (11747438_a_at) / RFU KRT8 (11758183_x_at) / Fold change /veh KRT8 (11758183_x_at) / RFU CNN1 (11734310_a_at) / Fold change /veh CNN1 (11734310_a_at) / RFU VPS37D (11726825_at) / Fold change /veh VPS37D (11726825_at) / RFU C10orf10 (11716522_x_at) / Fold change /veh C10orf10 (11716522_x_at) / RFU KIR2DL2 /// KIR2DL4 /// KIR2DL5A /// KIR2DL5B /// KIR2DS1 /// KIR2DS2 /// KIR2DS3 /// KIR2DS4 /// KIR3DL3 /// KIR3DL3 /// KIR3DS1 (11738374_at) / Fold change /veh KIR2DL2 /// KIR2DL4 /// KIR2DL5A /// KIR2DL5B /// KIR2DS1 /// KIR2DS2 /// KIR2DS3 /// KIR2DS4 /// KIR3DL3 /// KIR3DL3 /// KIR3DS1 (11738374_at) / RFU C1QL1 (11718748_at) / Fold change /veh C1QL1 (11718748_at) / RFU TMPRSS4 (11747572_a_at) / Fold change /veh TMPRSS4 (11747572_a_at) / RFU HAMP (11756126_x_at) / Fold change /veh HAMP (11756126_x_at) / RFU RNFT2 (11725882_a_at) / Fold change /veh RNFT2 (11725882_a_at) / RFU NR4A2 (11747474_a_at) / Fold change /veh NR4A2 (11747474_a_at) / RFU ABCC12 (11746883_a_at) / Fold change /veh ABCC12 (11746883_a_at) / RFU TMEM136 (11760407_x_at) / Fold change /veh TMEM136 (11760407_x_at) / RFU CLDN22 /// WWC2 (11732394_at) / Fold change /veh CLDN22 /// WWC2 (11732394_at) / RFU HLA-DPB1 (11760878_x_at) / Fold change /veh HLA-DPB1 (11760878_x_at) / RFU SPINT1 (11716480_a_at) / Fold change /veh SPINT1 (11716480_a_at) / RFU GAP43 (11754022_s_at) / Fold change /veh GAP43 (11754022_s_at) / RFU A4GNT (11735810_at) / Fold change /veh A4GNT (11735810_at) / RFU PRB3 (11715151_x_at) / Fold change /veh PRB3 (11715151_x_at) / RFU TUBB4B (11761932_at) / Fold change /veh TUBB4B (11761932_at) / RFU CAPN14 (11732068_a_at) / Fold change /veh CAPN14 (11732068_a_at) / RFU TMCC2 (11721928_a_at) / Fold change /veh TMCC2 (11721928_a_at) / RFU IRGQ (11745062_a_at) / Fold change /veh IRGQ (11745062_a_at) / RFU FAM174B (11720279_a_at) / Fold change /veh FAM174B (11720279_a_at) / RFU TMPRSS4 (11748680_a_at) / Fold change /veh TMPRSS4 (11748680_a_at) / RFU FAM212B (11763350_a_at) / Fold change /veh FAM212B (11763350_a_at) / RFU PLEKHG5 (11743358_a_at) / Fold change /veh PLEKHG5 (11743358_a_at) / RFU ZSCAN30 (11745921_a_at) / Fold change /veh ZSCAN30 (11745921_a_at) / RFU CMKLR1 (11741424_a_at) / Fold change /veh CMKLR1 (11741424_a_at) / RFU LOC101060620 /// MAPK8IP1 (11723275_at) / Fold change /veh LOC101060620 /// MAPK8IP1 (11723275_at) / RFU SPTSSB (11747773_x_at) / Fold change /veh SPTSSB (11747773_x_at) / RFU PRSS12 (11739890_at) / Fold change /veh PRSS12 (11739890_at) / RFU BIN1 (11741810_x_at) / Fold change /veh BIN1 (11741810_x_at) / RFU WNT11 (11732464_a_at) / Fold change /veh WNT11 (11732464_a_at) / RFU C10orf10 (11716521_a_at) / Fold change /veh C10orf10 (11716521_a_at) / RFU C5orf56 (11738089_at) / Fold change /veh C5orf56 (11738089_at) / RFU CYB561 (11721691_x_at) / Fold change /veh CYB561 (11721691_x_at) / RFU ANKRD19P (11752326_a_at) / Fold change /veh ANKRD19P (11752326_a_at) / RFU OR2T12 /// OR2T33 /// OR2T8 (11738714_s_at) / Fold change /veh OR2T12 /// OR2T33 /// OR2T8 (11738714_s_at) / RFU VCAN (11748164_a_at) / Fold change /veh VCAN (11748164_a_at) / RFU JSRP1 (11732532_at) / Fold change /veh JSRP1 (11732532_at) / RFU KRTAP10-11 (11738290_x_at) / Fold change /veh KRTAP10-11 (11738290_x_at) / RFU MYO3A (11730013_a_at) / Fold change /veh MYO3A (11730013_a_at) / RFU EBF3 (11725865_a_at) / Fold change /veh EBF3 (11725865_a_at) / RFU CAMK2N1 (11719241_x_at) / Fold change /veh CAMK2N1 (11719241_x_at) / RFU C5orf56 (11738088_a_at) / Fold change /veh C5orf56 (11738088_a_at) / RFU OLFML3 (11715873_a_at) / Fold change /veh OLFML3 (11715873_a_at) / RFU LOC100653217 /// NTM (11731650_a_at) / Fold change /veh LOC100653217 /// NTM (11731650_a_at) / RFU MAPK11 (11762145_a_at) / Fold change /veh MAPK11 (11762145_a_at) / RFU FIZ1 (11724087_x_at) / Fold change /veh FIZ1 (11724087_x_at) / RFU OASL (11726364_x_at) / Fold change /veh OASL (11726364_x_at) / RFU SOX15 (11748057_x_at) / Fold change /veh SOX15 (11748057_x_at) / RFU CD79A (11719716_a_at) / Fold change /veh CD79A (11719716_a_at) / RFU HIST1H1D (11736915_at) / Fold change /veh HIST1H1D (11736915_at) / RFU CASKIN2 (11723855_a_at) / Fold change /veh CASKIN2 (11723855_a_at) / RFU LOC730098 (11760151_x_at) / Fold change /veh LOC730098 (11760151_x_at) / RFU OR4N2 (11742367_at) / Fold change /veh OR4N2 (11742367_at) / RFU PRRT2 (11749266_a_at) / Fold change /veh PRRT2 (11749266_a_at) / RFU SNX32 (11753110_a_at) / Fold change /veh SNX32 (11753110_a_at) / RFU CDHR5 (11726645_a_at) / Fold change /veh CDHR5 (11726645_a_at) / RFU RCAN1 (11760418_a_at) / Fold change /veh RCAN1 (11760418_a_at) / RFU FAM167A (11723789_a_at) / Fold change /veh FAM167A (11723789_a_at) / RFU FAM26E (11764081_at) / Fold change /veh FAM26E (11764081_at) / RFU ISYNA1 (11749810_s_at) / Fold change /veh ISYNA1 (11749810_s_at) / RFU ACY1 (11761880_at) / Fold change /veh ACY1 (11761880_at) / RFU 11764098_at / Fold change /veh 11764098_at / RFU SAMD14 (11745864_x_at) / Fold change /veh SAMD14 (11745864_x_at) / RFU NPB (11741838_a_at) / Fold change /veh NPB (11741838_a_at) / RFU TMPRSS6 (11731388_a_at) / Fold change /veh TMPRSS6 (11731388_a_at) / RFU KRTAP10-2 (11738614_at) / Fold change /veh KRTAP10-2 (11738614_at) / RFU ARHGAP8 /// PRR5-ARHGAP8 (11727945_x_at) / Fold change /veh ARHGAP8 /// PRR5-ARHGAP8 (11727945_x_at) / RFU KRTAP5-7 /// NADSYN1 (11734609_at) / Fold change /veh KRTAP5-7 /// NADSYN1 (11734609_at) / RFU RASL12 (11751679_a_at) / Fold change /veh RASL12 (11751679_a_at) / RFU CDKN2B (11736163_a_at) / Fold change /veh CDKN2B (11736163_a_at) / RFU PRF1 (11729649_at) / Fold change /veh PRF1 (11729649_at) / RFU, ZNF638 /// ZNF638-IT1 / Fold change vs veh, ZNF638 /// ZNF638-IT1 / RFU, PANK3 / Fold change vs veh, PANK3 / RFU, SH3YL1 / Fold change vs veh, SH3YL1 / RFU, ZEB2 / Fold change vs veh, ZEB2 / RFU, NRIP1 / Fold change vs veh, NRIP1 / RFU, PTTG1IP / Fold change vs veh, PTTG1IP / RFU, CAPN2 / Fold change vs veh, CAPN2 / RFU, MED14 / Fold change vs veh, MED14 / RFU, SNORA58 / Fold change vs veh, SNORA58 / RFU, C1orf63 / Fold change vs veh, C1orf63 / RFU, LRRFIP1 / Fold change vs veh, LRRFIP1 / RFU, NDUFAF7 / Fold change vs veh, NDUFAF7 / RFU, SLC12A2 / Fold change vs veh, SLC12A2 / RFU, IBTK / Fold change vs veh, IBTK / RFU, ESF1 / Fold change vs veh, ESF1 / Fold change vs veh, TMEM50B / RFU, TAOK1 / Fold change vs veh, TAOK1 / RFU, ACBD3 / Fold change vs veh, ACBD3 / RFU, TMA16 / Fold change vs veh, TMA16 / RFU, RWDD3 / Fold change vs veh, RWDD3 / RFU, BCAT1 / Fold change vs veh, BCAT1 / RFU, EDEM3 / Fold change vs veh, EDEM3 / RFU, TMEM33 / Fold change vs veh, TMEM33 / RFU, WDR75 / Fold change vs veh, WDR75 / RFU, AHCTF1 / Fold change vs veh, AHCTF1 / RFU, TFRC / Fold change vs veh, TFRC / RFU, ZDHHC17 / Fold change vs veh, ZDHHC17 / RFU, NOM1 / Fold change vs veh, NOM1 / RFU, ARL8B / Fold change vs veh, ARL8B / RFU, ZBTB11 / Fold change vs veh, ZBTB11 / RFU, TAMM41 / Fold change vs veh, TAMM41 / RFU, KIAA1704 /// LOC100996395 / Fold change vs veh, KIAA1704 /// LOC100996395 / RFU, ING1 / Fold change vs veh, ING1 / RFU, TRMT61B / Fold change vs veh, TRMT61B / RFU, FUBP3 / Fold change vs veh, FUBP3 / RFU, TP53 / Fold change vs veh, TP53 / RFU, TNKS2 / Fold change vs veh, TNKS2 / RFU, ZFP14 / Fold change vs veh, ZFP14 / RFU, ACTR2 / Fold change vs veh, ACTR2 / RFU, PPP3R1 / Fold change vs veh, PPP3R1 / RFU, PIK3R1 / Fold change vs veh, PIK3R1 / RFU, HNRNPA1 / Fold change vs veh, HNRNPA1 / RFU, RNF170 / Fold change vs veh, RNF170 / RFU, ZNF28 / Fold change vs veh, ZNF28 / RFU, RNGTT / Fold change vs veh, RNGTT / RFU, OGT / Fold change vs veh, OGT / RFU, BRD1 / Fold change vs veh, BRD1 / RFU, MARS / Fold change vs veh, MARS / RFU, ZNF655 / Fold change vs veh, ZNF655 / RFU, FAHD1 / Fold change vs veh, FAHD1 / RFU, BDP1 / Fold change vs veh, BDP1 / RFU, LRRCC1 / Fold change vs veh, LRRCC1 / RFU, ARID1A / Fold change vs veh, ARID1A / RFU, ZNF146 / Fold change vs veh, ZNF146 / RFU, ZNF330 / Fold change vs veh, ZNF330 / RFU, GPN3 / Fold change vs veh, GPN3 / RFU, C9orf123 / Fold change vs veh, C9orf123 / RFU, N4BP2L2 / Fold change vs veh, N4BP2L2 / RFU, ARFIP1 / Fold change vs veh, ARFIP1 / RFU, FAM179B / Fold change vs veh, FAM179B / RFU, BCL10 / Fold change vs veh, BCL10 / RFU, UHRF1BP1L / Fold change vs veh, UHRF1BP1L / RFU, BET1 / Fold change vs veh, BET1 / RFU, CNOT2 / Fold change vs veh, CNOT2 / RFU, ZNF268 / Fold change vs veh, ZNF268 / Fold change vs veh, ZNF507 / RFU, DGCR2 / Fold change vs veh, DGCR2 / RFU, WDSUB1 / Fold change vs veh, WDSUB1 / Fold change vs veh, HSP90B1 /// MIR3652 / RFU, ADSS / Fold change vs veh, ADSS / RFU, GK / Fold change vs veh, GK / RFU, ZNF148 / Fold change vs veh, ZNF148 / RFU, TAF9 / Fold change vs veh, TAF9 / RFU, SLC1A5 / Fold change vs veh, SLC1A5 / RFU, SLMO2 / Fold change vs veh, SLMO2 / RFU, ABCC4 / Fold change vs veh, ABCC4 / RFU, LOC101060439 /// RAP1B / Fold change vs veh, LOC101060439 /// RAP1B / RFU, RFX7 / Fold change vs veh, RFX7 / RFU, GTPBP10 / Fold change vs veh, GTPBP10 / RFU, CNEP1R1 / Fold change vs veh, CNEP1R1 / RFU, BIVM-ERCC5 /// ERCC5 / Fold change vs veh, BIVM-ERCC5 /// ERCC5 / RFU, ILF3 / Fold change vs veh, ILF3 / RFU 11762660_at / Fold change /veh 11762660_at / RFU VCAN (11757783_s_at) / Fold change /veh VCAN (11757783_s_at) / RFU DDX43 (11728927_at) / Fold change /veh DDX43 (11728927_at) / RFU KRT8 (11758188_x_at) / Fold change /veh KRT8 (11758188_x_at) / RFU NKD1 (11759106_at) / Fold change /veh NKD1 (11759106_at) / RFU SRD5A1 (11742802_a_at) / Fold change /veh SRD5A1 (11742802_a_at) / RFU TPSAB1 /// TPSB2 (11721975_s_at) / Fold change /veh TPSAB1 /// TPSB2 (11721975_s_at) / RFU GSTM3 (11746129_a_at) / Fold change /veh GSTM3 (11746129_a_at) / RFU IL23R (11737362_x_at) / Fold change /veh IL23R (11737362_x_at) / RFU TMEM51 (11727254_a_at) / Fold change /veh TMEM51 (11727254_a_at) / RFU PIWIL2 (11732686_x_at) / Fold change /veh PIWIL2 (11732686_x_at) / RFU ORM1 (11744905_x_at) / Fold change /veh ORM1 (11744905_x_at) / RFU CCDC152 (11743942_at) / Fold change /veh CCDC152 (11743942_at) / RFU ECM1 (11717891_a_at) / Fold change /veh ECM1 (11717891_a_at) / RFU IL23R (11748794_a_at) / Fold change /veh IL23R (11748794_a_at) / RFU TNFAIP8L3 (11732012_x_at) / Fold change /veh TNFAIP8L3 (11732012_x_at) / RFU MBOAT4 (11741988_at) / Fold change /veh MBOAT4 (11741988_at) / RFU 11764193_at / Fold change /veh 11764193_at / RFU TMEM53 (11763286_at) / Fold change /veh TMEM53 (11763286_at) / RFU MAGEB2 (11727129_at) / Fold change /veh MAGEB2 (11727129_at) / RFU TMEM200A (11744735_a_at) / Fold change /veh TMEM200A (11744735_a_at) / RFU CCDC152 (11751479_a_at) / Fold change /veh CCDC152 (11751479_a_at) / RFU FAM211A (11726209_a_at) / Fold change /veh FAM211A (11726209_a_at) / RFU RGS16 (11746705_a_at) / Fold change /veh RGS16 (11746705_a_at) / RFU VCAN (11755009_s_at) / Fold change /veh VCAN (11755009_s_at) / RFU RHOB (11743442_s_at) / Fold change /veh RHOB (11743442_s_at) / RFU RGS16 (11720943_a_at) / Fold change /veh RGS16 (11720943_a_at) / RFU RGS16 (11720944_at) / Fold change /veh RGS16 (11720944_at) / RFU, VPS4B / Fold change vs veh, VPS4B / RFU, CREB1 / Fold change vs veh, CREB1 / RFU, DNAJC13 / Fold change vs veh, DNAJC13 / RFU, GNAQ / Fold change vs veh, GNAQ / RFU, CDK5R1 / Fold change vs veh, CDK5R1 / RFU, ZRANB3 / Fold change vs veh, ZRANB3 / RFU, CUL4A / Fold change vs veh, CUL4A / RFU, CCNY / Fold change vs veh, CCNY / RFU, UFL1 / Fold change vs veh, UFL1 / RFU, COG3 / Fold change vs veh, COG3 / RFU, DIAPH2 / Fold change vs veh, DIAPH2 / RFU, SKA2 / Fold change vs veh, SKA2 / RFU, AFF3 / Fold change vs veh, AFF3 / RFU, LMF1 / Fold change vs veh, LMF1 / RFU, IPO11 / Fold change vs veh, IPO11 / RFU, DFFB / Fold change vs veh, DFFB / RFU, FOXP1 / Fold change vs veh, FOXP1 / RFU, CARD8 / Fold change vs veh, CARD8 / RFU, STRN3 / Fold change vs veh, STRN3 / RFU, ADK / Fold change vs veh, ADK / RFU, RASSF2 / Fold change vs veh, RASSF2 / RFU, WIPF1 / Fold change vs veh, WIPF1 / RFU, LARP1B / Fold change vs veh, LARP1B / RFU, RASA1 / Fold change vs veh, RASA1 / RFU, RB1 / Fold change vs veh, RB1 / RFU, PPFIA1 / Fold change vs veh, PPFIA1 / RFU, MAT2A / Fold change vs veh, MAT2A / RFU, CCT5 / Fold change vs veh, CCT5 / RFU, WDR92 / Fold change vs veh, WDR92 / RFU, CUX1 / Fold change vs veh, CUX1 / RFU, TTC7A / Fold change vs veh, TTC7A / RFU, TMEM135 / Fold change vs veh, TMEM135 / RFU, DEPTOR / Fold change vs veh, DEPTOR / RFU, CPM / Fold change vs veh, CPM / RFU, DNAJB6 / Fold change vs veh, DNAJB6 / RFU, CACNA2D3 / Fold change vs veh, CACNA2D3 / RFU, DTX4 / Fold change vs veh, DTX4 / RFU, TFCP2 / Fold change vs veh, TFCP2 / RFU, GMCL1 /// GMCL1P1 / Fold change vs veh, GMCL1 /// GMCL1P1 / RFU, AEBP2 / Fold change vs veh, AEBP2 / RFU, SNHG1 /// SNORD22 /// SNORD25 /// SNORD26 /// SNORD27 /// SNORD28 /// SNORD29 /// SNORD31 / Fold change vs veh, SNHG1 /// SNORD22 /// SNORD25 /// SNORD26 /// SNORD27 /// SNORD28 /// SNORD29 /// SNORD31 / Fold change (Aza/veh), C12orf56 (ProbeSet 11735607_a_at) / Fold change (ACY-1035/veh), C12orf56 (ProbeSet 11735607_a_at) / Fold change (Aza/veh), FGFR1OP (ProbeSet 11751329_s_at) / Fold change (ACY-1035/veh), FGFR1OP (ProbeSet 11751329_s_at) / Fold change (Aza/veh), VPS36 (ProbeSet 11739960_a_at) / Fold change (ACY-1035/veh), VPS36 (ProbeSet 11739960_a_at) / RFU SYPL1 (11715823_x_at) / Fold change /veh SYPL1 (11715823_x_at) / RFU IGFBP7 (11715501_s_at) / Fold change /veh IGFBP7 (11715501_s_at) / RFU REEP3 (11722064_at) / Fold change /veh REEP3 (11722064_at) / RFU IGLL1 (11728026_x_at) / Fold change /veh IGLL1 (11728026_x_at): dose or concentration left out as unconfirmed
# Conditions: ProbeSet 11755425_a_at; LIST B
structure (smiles),measurement,value
Nc1ncn([C@@H]2O[C@H](CO)[C@@H](O)[C@H]2O)c(=O)n1 [azacitidine],"RFU, FAM179B",66.28 RFU
